US20120165285A1, “COMBINED PREPARATION FOR USE AS A MEDICAMENT” (priority 2009, published 2012)

Key:
[1] = test system: patients suffering from diabetic neuropathy; test: Phase 2A clinical trial, diabetic neuropathic pain; format: in vivo, human
Description: In a Phase 2A clinical trial, patients suffering from diabetic neuropathy were administered 2-methoxyadenosine (2-MeOAd)) (7 mg 3 times per day) or a placebo over a four week period, and asked to rate their pain intensity (diabetic neuropathic pain) once per week based on an 11 point Likert Scale (0-10). The patients included some who were already being administered with a calcium channel blocker at a conventional therapeutic dose. The calcium channel blockers administered included Amlodipine (5-10 mg once per day), Verapamil, or Felodipine.
Patients in the clinical trial also completed the Short form McGill pain questionnaire (SF-MPQ) (Melzack, Pain, 1987, August; 30(2):191-7). The main component of the SF-MPQ consists of 15 descriptors (11 sensory; 4 affective) which are rated on an intensity scale as […], 1=mild, 2=moderate or 3=severe. Three pain scores are derived from the sum of the intensity rank values of the words chosen for sensory, affective and total descriptors. The SF-MPQ also includes the Present Pain Intensity (PPI) index of the standard MPQ and a visual analogue scale (VAS).

adenosine A2A receptor = adenosine A2A receptor (Homo sapiens, UniProt P29274); test: EC50 at the adenosine A2A receptor; format: biochemical
Sequence of adenosine A2A receptor (P29274 whole entry): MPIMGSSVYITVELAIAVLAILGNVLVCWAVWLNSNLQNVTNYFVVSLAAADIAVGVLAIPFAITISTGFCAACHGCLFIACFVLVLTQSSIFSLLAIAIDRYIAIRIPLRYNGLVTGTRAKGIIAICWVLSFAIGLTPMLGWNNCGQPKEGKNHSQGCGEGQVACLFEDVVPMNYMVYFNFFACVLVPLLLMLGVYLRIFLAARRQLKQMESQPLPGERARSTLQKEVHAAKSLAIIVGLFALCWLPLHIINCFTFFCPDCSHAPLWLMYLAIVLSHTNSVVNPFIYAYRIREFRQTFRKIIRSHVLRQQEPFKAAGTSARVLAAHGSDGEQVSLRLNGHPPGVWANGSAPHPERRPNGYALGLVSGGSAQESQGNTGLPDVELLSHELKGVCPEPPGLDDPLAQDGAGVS
Description: For the avoidance of doubt, the EC50 value of a compound is defined herein as the concentration of the compound that provokes a receptor response halfway between the baseline receptor response and the maximum receptor response (as determined, for example, using a dose-response curve).
The EC50 value should be determined under standard conditions (balanced salt solutions buffered to pH 7.4). For EC50 determinations using isolated membranes, cells and tissues this would be in buffered salt solution at pH 7.4 (e.g. cell culture medium), for example as in Daly et al., Pharmacol. (1993) 46, 91-100), or preferably as in Tilburg et al (J. Med. Chem. (2002) 45, 91-100). The EC50 could also be determined in vivo by measuring A2A adenosine receptor mediated responses in a normal healthy animal, or even in a tissue perfused under normal conditions (i.e. oxygenated blood, or oxygenated isotonic media, also buffered at pH 7.4) in a normal healthy animal.

A2A adenosine receptor = A2A adenosine receptor (Homo sapiens, UniProt P29274); conditions: pH below 7.4; cited from earlier work
Sequence of A2A adenosine receptor (P29274 whole entry): as above

[2] = test system: rat adjuvant model of arthritis; test: Rat adjuvant model of arthritis, analgesic relief; format: in vivo
[3] = patients also administered a calcium channel blocker
[4] = with calcium channel blocker, P<0.02

## COc1nc(N)c2ncn([C@@H]3O[C@H](CO)[C@@H](O)[C@H]3O)c2n1 [2-methoxyadenosine]
[1]; [3]
  effect on 24-hour pain intensity compared with placebo: significant effect
  responder rate, patients who experienced >30% pain relief: 74%
  responder rate, patients who experienced >50% pain relief: 43%
[1]; patients also administered a calcium channel blocker, after 4 weeks, 7 mg 3 times per day, 11 point Likert Scale, P<0.01
  median change from baseline in 24-hour pain intensity: more than −2.5
[1]; patients not also administered a calcium channel blocker
  effect on 24-hour pain intensity compared with placebo: no effect
[1]; whole patient population (with and without calcium channel blocker), Week 4, 7 mg 3 times per day, 11 point Likert Scale
  median change from baseline in 24-hour pain intensity, difference below placebo: 0.7
[1]; with calcium channel blocker
  patient global impression of change (PGIC), 7 point scale: favourable effect
[1]; [4]
  Clinical global impression of change (CGIC), 7 point scale: reduction
  pain rated by the VAS (SF-MPQ): reduction
[1]; with calcium channel blocker, P<0.03
  SF-MPQ total pain intensity score: reduction
[1]; with calcium channel blocker, P<0.04
  present pain intensity (PPI, SF-MPQ): reduction
Adenosine A2A receptor
  EC50: ~1 µM
A2A adenosine receptor
  affinity for adenosine receptors at pH below pH 7.4: increased affinity
[2]
  minimum plasma concentration giving maximal analgesic relief: 0.06 µM
